Several values for one entry are separate records, joined by “and”; a condition that tells them apart may be missing. Equal values may be shown once.

As usually defined, the Km is the substrate concentration at which the rate is half of its maximum. A word on the kcat: it is the maximal rate divided by the concentration of active sites. The term kcat/Km denotes the turnover number divided by the Michaelis constant.

One data set deals with THP-1 Lucia ISG cells. As to the kind of experiment: β-Glucuronidase-specific STING activation, cytokine secretion assays. The note with it: 25 μM each, with β-glucuronidase 250 units ml^−1, 24 h. Type of data set: cell-based, human.
A short description of data set [1]: Competition assay: N1–E4 dimerization in the presence of competitors C1–6 (HPLC). Type of data set: physicochemical. The note with it: equimolar E4, competitor and N1, 50 μM each.
The nature of data set [2]: Colorimetric alkylation rate constant assay with TNB^2− as non-specific thiol. The data set is classed as physicochemical. Also on record: second-order: unit not given here. The settings on record: [B]0 = 250, Replicates 1-3.
A short description of data set [3]: Colorimetric alkylation rate constant assay with thiol N1. Type of data set: physicochemical.
Substrate in data set [4]: COc1cc2sc(C(=O)CCC(=O)O)cc2cc1SCO[C@@H]1O[C@H](C(=O)O)[C@@H](O)[C@H](O)[C@H]1O
As to the kind of experiment: Michaelis–Menten kinetics of β-GlcA-N1 cleavage. Type of data set: biochemical, human. The settings on record: other: 37 °C, 0.2 M sodium acetate pH 4.5, 67 nM enzyme. The method, then:
Human β-glucuronidase (AcroBiosystems BEB-H52H3) was reconstituted in deionized water to a concentration of 1 mg ml^−1. The enzyme stock solution was further diluted in assay buffer (0.2 M acetate pH 4.5) to 10 μg ml^−1 (134 nM). β-GlcA-N1 (50 mM DMSO stock) was twofold serially diluted in assay buffer from 5 to 0.078 mM. The enzyme solution and diluted β-GlcA-N1 were incubated in a transparent 96-well plate and incubated at 37 °C until thermo equilibrium was reached. Then, 100 µl of β-GlcA-N1 at various concentrations was mixed with 100 µl of β-glucuronidase using a multichannel pipette, resulting in the following initial condition: [β-GlcA-N1] = 2.5, 1.25, 0.62, 0.31, 0.16, 0.08 and 0.04 mM; [β-glucuronidase] = 67 nM; 5% DMSO (v/v). The reactions were incubated at 37 °C. At 30-min and 60-min timepoints, a 50-µl portion was withdrawn from each reaction mixture and mixed with 50 µl of quenching buffer (1 M sodium carbonate, 1 mM TCEP). The concentration of liberated N1 was determined by comparing the absorbance of each quenched reaction at 410 nm to a calibration curve of purified N1. Reaction velocities were calculated from the slopes of [N1] versus time plots. The velocity versus [β-GlcA-N1] plot was then fitted with the standard Michaelis–Menten kinetic model (GraphPad Prism).

Data set [5] deals with the molecule itself. The experiment in a line: crystal structure; STING LBD (247 µM) with compound D5 (2.2 mM), sitting drops, 20 °C; 2.31 Å.

For the molecule `CCSc1cc2cc(C(=O)CCC(=O)O)sc2cc1OC` [Compound E4-ctrl], the “secretion of cytokines downstream of STING (interferon-β, CXCL-10, IL-6)” value with THP-1 Lucia ISG cells is “diminished the cytokine inductions”.
Regarding `O=C(CCl)Nc1cc(C(F)(F)F)cc(C(F)(F)F)c1` [Compound C1], the “reduction of the amount of N1–E4 dimer by the competitor” value in data set [1] was 35%. The second-order in data set [2] (Time 2891 sec) is 0.0005428 and 0.0004879 and 0.0005765; in data set [2] (Time 3071 sec), 0.0005659 and 0.0004944 and 0.0005968; in data set [2] (Time 3252 sec), 0.0005928 and 0.000525 and 0.0006178; in data set [2] (Time 3433 sec), 0.0006132 and 0.0005166 and 0.0006465; in data set [2] (Time 3613 sec), 0.0006269 and 0.0005419 and 0.0006634; in data set [2] (Time 3794 sec), 0.0006518 and 0.0005802 and 0.0006849. Also, the second-order in data set [2] (Time 3974 sec) was 0.0006575 and 0.0005747 and 0.00069; in data set [2] (Time 4155 sec), 0.0006878 and 0.0006116 and 0.0007283; in data set [2] (Time 4336 sec), 0.0007043 and 0.0006446 and 0.000736; in data set [2] (Time 4516 sec) it was 0.0007158 and 0.0006546 and 0.0007684; in data set [2] (Time 4697 sec), 0.0007519 and 0.0006931 and 0.0007736; in data set [2] (Time 4878 sec), 0.0007648 and 0.000697 and 0.0008077. Moreover, the second-order in data set [2] (Time 5058 sec) is 0.000772 and 0.0007238 and 0.0008222; in data set [2] (Time 5239 sec), 0.0008041 and 0.000747 and 0.0008434; in data set [2] (Time 5419 sec) it was 0.0008239 and 0.0007489 and 0.0008675; in data set [2] (Time 5600 sec), 0.0008471 and 0.0007554 and 0.0008837; in data set [2] (Time 5781 sec) it was 0.0008692 and 0.0007775 and 0.0009026; in data set [2] (Time 5961 sec), 0.0008692 and 0.000805 and 0.0009333. The second-order is given as 0.007537 in data set [3] (Replicate 1, time 576 sec, second-order plot value); 0.007697 in data set [3] (Replicate 1, time 606 sec, second-order plot value); 0.007533 in data set [3] (Replicate 2, time 576 sec, second-order plot value); 0.00792 in data set [3] (Replicate 2, time 606 sec, second-order plot value); 0.007357 in data set [3] (Replicate 3, time 576 sec, second-order plot value); 0.007639 in data set [3] (Replicate 3, time 606 sec, second-order plot value). The second-order in data set [3] (time 0 sec, replicates 1-3) was 0.001153 and 0.001059 and 0.00116; in data set [3] (time 30 sec, replicates 1-3) it was 0.001608 and 0.001493 and 0.001543; in data set [3] (time 60 sec, replicates 1-3), 0.001966 and 0.001867 and 0.001909; in data set [3] (time 91 sec, replicates 1-3) it was 0.002342 and 0.002215 and 0.002258; in data set [3] (time 121 sec, replicates 1-3), 0.002679 and 0.002554 and 0.002612; in data set [3] (time 151 sec, replicates 1-3) it was 0.002904 and 0.002968. Moreover, the second-order in data set [3] (time 212 sec, replicates 1-3) was 0.003712 and 0.003583 and 0.003667; in data set [3] (time 242 sec, replicates 1-3), 0.004057 and 0.003913 and 0.004; in data set [3] (time 273 sec, replicates 1-3) it was 0.00439 and 0.004239 and 0.004347; in data set [3] (time 303 sec, replicates 1-3), 0.004715 and 0.004571 and 0.004691; in data set [3] (time 333 sec, replicates 1-3), 0.005043 and 0.004886 and 0.00503; in data set [3] (time 364 sec, replicates 1-3), 0.005369 and 0.005207 and 0.005358. The second-order was 0.005645 and 0.005521 and 0.005712 in data set [3] (time 394 sec, replicates 1-3); 0.005918 and 0.005838 and 0.006051 in data set [3] (time 424 sec, replicates 1-3); 0.006191 and 0.006157 and 0.006365 in data set [3] (time 454 sec, replicates 1-3); 0.006532 and 0.006449 and 0.006705 in data set [3] (time 485 sec, replicates 1-3); 0.006798 and 0.006747 and 0.007019 in data set [3] (time 515 sec, replicates 1-3); 0.007139 and 0.00704 and 0.007306 in data set [3] (time 545 sec, replicates 1-3).

B1: human β-glucuronidase (Homo sapiens) (protein)
chain: LQGGMLYPQESPSRECKELDGLWSFRADFSDNRRRGFEEQWYRRPLWESGPTVDMPVPSSFNDISQDWRLRHFVGWVWYEREVILPERWTQDLRTRVVLRIGSAHSYAIVWVNGVDTLEHEGGYLPFEADISNLVQVGPLPSRLRITIAINNTLTPTTLPPGTIQYLTDTSKYPKGYFVQNTYFDFFNYAGLQRSVLLYTTPTTYIDDITVTTSVEQDSGLVNYQISVKGSNLFKLEVRLLDAENKVVANGTGTQGQLKVPGVSLWWPYLMHERPAYLYSLEVQLTAQTSLGPVSDFYTLPVGIRTVAVTKSQFLINGKPFYFHGVNKHEDADIRGKGFDWPLLVKDFNLLRWLGANAFRTSHYPYAEEVMQMCDRYGIVVIDECPGVGLALPQFFNNVSLHHHMQVMEEVVRRDKNHPAVVMWSVANEPASHLESAGYYLKMVIAHTKSLDPSRPVTFVSNSNYAADKGAPYVDVICLNSYYSWYHDYGHLELIQLQLATQFENWYKKYQKPIIQSEYGAETIAGFHQDPPLMFTEEYQKSLLEQYHLGLDQKRRKYVVGELIWNFADFMTEQSPTRVLGNKKGIFTRQRQPKSAAFLLRERYWKIANETRYPHSVAKSQCLENSLFT
notes: purchased AcroBiosystems BEB-H52H3
Regarding B1, in data set [4], the Km is 319 µM, the kcat was 0.48 s⁻¹ and the specificity constant (kcat/Km) came to 1500 M⁻¹ s⁻¹.

B2: R232-STING 138-379 (ligand-binding domain of human STING) (domain or fragment, UniProt Q86WV6 138-379, looked up)
chain: GLAPAEISAVCEKGNFNVAHGLAWSYYIGYLRLILPELQARIRTYNQHYNNLLRGAVSQRLYILLPLDCGVPDNLSMADPNIRFLDKLPQQTGDHAGIKDRVYSNSIYELLENGQRAGTCVLEYATPLQTLFAMSQYSQAGFSREDRLEQAKLFCRTLEDILADAPESQNNCRLIAYQEPADDSSFSLSQEVLRHLRQEEKEEVTVGSLKTSAVPSTSTMSQEPELLISGMEKPLPLRTDFS
notes: chains A and B form the dimer; also called STING LBD; hSTING LBD; source: E. coli BL21(DE3), purified (Ni-NTA, TEV cleavage, reverse Ni-NTA, gel filtration)
B2: in data set [5], the binding result is “binds”.
